# Data from article PMC6934184, “Selective DNA-PKcs inhibition extends the therapeutic index of localized radiotherapy and chemotherapy” (The Journal of Clinical Investigation, 2019).
# Target: T1, ITK (Homo sapiens, UniProt Q08881)
# T1 construct: purchased Thermo Fisher Scientific (Life Technologies) SelectScreen
# Test: SelectScreen Z'LYTE
# Type: biochemical
# How it was run: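 Percent values come from Thermo SelectScreen profiling of NU5455, combining activity and binding assays. CSF1R was run in Z'LYTE format at Km app ATP, and CAMK1 in Adapta format with ATP listed at 10.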
# T1 sequence (Q08881 whole entry): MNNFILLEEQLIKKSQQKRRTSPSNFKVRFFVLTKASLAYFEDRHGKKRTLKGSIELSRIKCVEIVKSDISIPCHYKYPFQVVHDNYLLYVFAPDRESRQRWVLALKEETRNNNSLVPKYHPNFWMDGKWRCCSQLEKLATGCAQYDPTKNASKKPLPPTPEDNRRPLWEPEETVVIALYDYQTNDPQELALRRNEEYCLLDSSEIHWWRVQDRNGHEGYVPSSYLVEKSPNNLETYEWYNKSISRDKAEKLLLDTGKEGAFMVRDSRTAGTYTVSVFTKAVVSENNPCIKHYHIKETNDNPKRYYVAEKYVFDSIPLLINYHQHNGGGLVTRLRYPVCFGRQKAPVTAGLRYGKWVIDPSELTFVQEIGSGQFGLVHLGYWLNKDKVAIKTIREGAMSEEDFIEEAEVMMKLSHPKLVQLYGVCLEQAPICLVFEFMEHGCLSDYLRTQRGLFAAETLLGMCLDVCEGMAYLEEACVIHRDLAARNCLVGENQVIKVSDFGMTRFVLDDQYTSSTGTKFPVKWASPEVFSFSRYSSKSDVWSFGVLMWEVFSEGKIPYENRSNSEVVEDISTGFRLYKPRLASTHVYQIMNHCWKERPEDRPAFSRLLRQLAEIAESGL
structure (smiles),measurement,value
CN(C(=O)CN1CCOCC1)c1ccc2sc3c(-c4cccc5c(=O)cc(N6CC7CCC(C6)O7)oc45)cccc3c2c1 [NU5455],inhibition at 1 µM,5.5%
